Experimental data taken from US10105357B2, “Indication of antibiotic drugs for preparation of cancer inhibition pharmaceutical composition” (LAUNX BIOMEDICAL CO., LTD., priority 2014, dated 2018).
Read-outs that look alike come from different tables or passages of the source.

Assays:
[1] = system: HeLa (Cervix Adenocarcinoma); assay: Cell viability analysis, cervical cancer HeLa; format: cell-based, human; conditions: HeLa, repeated experiment
[2] = system: HepG2 (Hepatocellular Carcinoma); assay: Cell viability analysis, hepatic cancer HepG2; format: cell-based, human; conditions: HepG2, repeated experiment
[3] = system: HI650 (Lung Adenocarcinoma); assay: Cell viability analysis, lung cancer HI650; format: cell-based, human; conditions: H1650, repeated experiment
T24 = assay: Cell viability analysis, bladder cancer T24; format: cell-based, human; conditions: T24, repeated experiment
[4] = system: PC3 (p53−) (Prostate Adenocarcinoma); assay: Cell viability analysis, prostate cancer PC3; format: cell-based, human
U-2OS = assay: Cell viability analysis, osteosarcoma U-2OS; format: cell-based, human; conditions: U2OS, repeated experiment
[5] = system: A375 (Amelanotic Melanoma); assay: Cell viability analysis, skin cancer A375; format: cell-based, human; conditions: A375, repeated experiment
[6] = system: AGS (Gastric Adenocarcinoma); assay: Cell viability analysis, gastric cancer AGS; format: cell-based, human; conditions: AGS, repeated experiment
[7] = system: C-33A (Cervical carcinoma); assay: Cell viability analysis, cervical cancer C-33A; format: cell-based, human; conditions: C-33A, repeated experiment
[8] = system: SAS (Tongue squamous cell carcinoma); assay: Cell viability analysis, tongue cancer SAS; format: cell-based, human; conditions: SAS, repeated experiment
[9] = system: TSGH-8301 (Urinary Bladder Carcinoma); assay: Cell viability analysis, bladder cancer TSGH-8301; format: cell-based, human; conditions: TSGH-8301, repeated experiment
[10] = system: HCT116 (p53+) (Colorectal Carcinoma)
TOV-21G = assay: Cell viability analysis, ovarian cancer TOV-21G; format: cell-based, human; conditions: TOV-21G, repeated experiment
[11] = system: 786-O (Renal adenocarcinoma); assay: Cell viability analysis, renal cancer 786-O; format: cell-based, human; conditions: 786-O, repeated experiment
NIH: OVCAR-3 = assay: Cell viability analysis, ovarian cancer NIH: OVCAR-3; format: cell-based, human; conditions: NIH-OVCAR-3, repeated experiment
[12] = system: MKN-45 (Gastric Adenocarcinoma); assay: Cell viability analysis, gastric cancer MKN-45; format: cell-based, human
[13] = system: MCF7 (Mammary Gland, Adenocarcinoma); assay: Cell viability analysis, breast cancer MCF7; format: cell-based, human; conditions: MCF-7, repeated experiment
BxPC-3 = assay: Cell viability analysis, pancreatic cancer BxPC-3; format: cell-based, human; conditions: BxPC-3, repeated experiment
[14] = system: LoVo (Colorectal Adenocarcinoma); assay: Cell viability analysis, colon cancer LoVo; format: cell-based, human; conditions: LoVo, repeated experiment
[15] = system: Hep3B (hepatocellular carcinoma); assay: Cell viability analysis, hepatic cancer Hep3B; format: cell-based, human; conditions: Hep3B, repeated experiment
[16] = system: A549 (Lung Adenocarcinoma); assay: Cell viability analysis, lung cancer A549; format: cell-based, human; conditions: A549, repeated experiment
[17] = system: BCC (basal cell carcinoma); assay: Cell viability analysis, skin cancer BCC; format: cell-based, human; conditions: BCC, repeated experiment
[18] = system: MDA-MB-231 (Mammary Gland, Adenocarcinoma); assay: Cell viability analysis, breast cancer MDA-MB-231; format: cell-based, human; conditions: MDA-MB231, repeated experiment
AsPC-1 = assay: Cell viability analysis, pancreatic cancer AsPC-1; format: cell-based, human; conditions: AsPC-1, repeated experiment

## CC[C@H](C)[C@H]1O[C@]2(CC[C@@H]1C)C[C@@H]1C[C@@H](C/C=C(\C)[C@@H](O[C@H]3C[C@H](OC)[C@@H](O[C@H]4C[C@H](OC)[C@@H](O)[C@H](C)O4)[C@H](C)O3)[C@@H](C)/C=C/C=C3\CO[C@@H]4[C@H](O)C(C)=C[C@@H](C(=O)O1)[C@]34O)O2 [Ivermectin]
[1]
  The results of antibiotic drug inhibiting cancer cell lines (cell viability analysis), HeLa: 58.86
[2]
  The results of antibiotic drug inhibiting cancer cell lines (cell viability analysis), HepG2: 65.3
[3]
  The results of antibiotic drug inhibiting cancer cell lines (cell viability analysis), H1650: 50.2
T24
  The results of antibiotic drug inhibiting cancer cell lines (cell viability analysis), T24: 101.7
[4]; PC-3, repeated experiment
  The results of antibiotic drug inhibiting cancer cell lines (cell viability analysis), PC-3: 27.87
U-2OS
  The results of antibiotic drug inhibiting cancer cell lines (cell viability analysis), U2OS: 50.69
[5]
  The results of antibiotic drug inhibiting cancer cell lines (cell viability analysis), A375: 44.36
[6]
  The results of antibiotic drug inhibiting cancer cell lines (cell viability analysis), AGS: 79.82
[7]
  The results of antibiotic drug inhibiting cancer cell lines (cell viability analysis), C-33A: 85.05
[8]
  The results of antibiotic drug inhibiting cancer cell lines (cell viability analysis), SAS: 41.52
[9]
  The results of antibiotic drug inhibiting cancer cell lines (cell viability analysis), TSGH-8301: 63.74
[10]
  viability: 62.7%
TOV-21G
  The results of antibiotic drug inhibiting cancer cell lines (cell viability analysis), TOV-21G: 42.41
[11]
  The results of antibiotic drug inhibiting cancer cell lines (cell viability analysis), 786-O: 55.69
NIH: OVCAR-3
  The results of antibiotic drug inhibiting cancer cell lines (cell viability analysis), NIH-OVCAR-3: 61.85
[12]; MKN-45, repeated experiment
  The results of antibiotic drug inhibiting cancer cell lines (cell viability analysis), MKN-45: 102.1
[13]
  The results of antibiotic drug inhibiting cancer cell lines (cell viability analysis), MCF-7: 48.13
BxPC-3
  The results of antibiotic drug inhibiting cancer cell lines (cell viability analysis), BxPC-3: 65.76
[14]
  The results of antibiotic drug inhibiting cancer cell lines (cell viability analysis), LoVo: 53.26
[15]
  The results of antibiotic drug inhibiting cancer cell lines (cell viability analysis), Hep3B: 63.22
[16]
  The results of antibiotic drug inhibiting cancer cell lines (cell viability analysis), A549: 33.35
[17]
  The results of antibiotic drug inhibiting cancer cell lines (cell viability analysis), BCC: 33.64
[18]
  The results of antibiotic drug inhibiting cancer cell lines (cell viability analysis), MDA-MB231: 83.03
AsPC-1
  The results of antibiotic drug inhibiting cancer cell lines (cell viability analysis), AsPC-1: 41.75

## COC(=O)Nc1nc2cc(C(=O)c3ccc(F)cc3)ccc2[nH]1 [Flubendazole (Flutelmium)]
[1]
  The results of antibiotic drug inhibiting cancer cell lines (cell viability analysis), HeLa: 25.78
[2]
  The results of antibiotic drug inhibiting cancer cell lines (cell viability analysis), HepG2: 56.8
[3]
  The results of antibiotic drug inhibiting cancer cell lines (cell viability analysis), H1650: 35.69
T24
  The results of antibiotic drug inhibiting cancer cell lines (cell viability analysis), T24: 34.67
[4]
  The results of antibiotic drug inhibiting cancer cell lines (cell viability analysis), PC-3: 32.11
U-2OS
  The results of antibiotic drug inhibiting cancer cell lines (cell viability analysis), U2OS: 48.74
[5]
  The results of antibiotic drug inhibiting cancer cell lines (cell viability analysis), A375: 30.32
[6]
  The results of antibiotic drug inhibiting cancer cell lines (cell viability analysis), AGS: 28.25
[7]
  The results of antibiotic drug inhibiting cancer cell lines (cell viability analysis), C-33A: 46.4
[8]
  The results of antibiotic drug inhibiting cancer cell lines (cell viability analysis), SAS: 45.16
[9]
  The results of antibiotic drug inhibiting cancer cell lines (cell viability analysis), TSGH-8301: 45.64
[10]
  The results of antibiotic drug inhibiting cancer cell lines (cell viability analysis), HCT116: 20.63
TOV-21G
  The results of antibiotic drug inhibiting cancer cell lines (cell viability analysis), TOV-21G: 24.84
[11]
  The results of antibiotic drug inhibiting cancer cell lines (cell viability analysis), 786-O: 20.97
NIH: OVCAR-3
  The results of antibiotic drug inhibiting cancer cell lines (cell viability analysis), NIH-OVCAR-3: 59.15
[12]
  The results of antibiotic drug inhibiting cancer cell lines (cell viability analysis), MKN-45: 63.06
[13]
  The results of antibiotic drug inhibiting cancer cell lines (cell viability analysis), MCF-7: 55.01
BxPC-3
  The results of antibiotic drug inhibiting cancer cell lines (cell viability analysis), BxPC-3: 32.76
[14]
  The results of antibiotic drug inhibiting cancer cell lines (cell viability analysis), LoVo: 53.35
[15]
  The results of antibiotic drug inhibiting cancer cell lines (cell viability analysis), Hep3B: 56.93
[16]
  The results of antibiotic drug inhibiting cancer cell lines (cell viability analysis), A549: 22.71
[17]
  The results of antibiotic drug inhibiting cancer cell lines (cell viability analysis), BCC: 31.79
[18]
  The results of antibiotic drug inhibiting cancer cell lines (cell viability analysis), MDA-MB231: 43.43
AsPC-1
  The results of antibiotic drug inhibiting cancer cell lines (cell viability analysis), AsPC-1: 35.53

## COC(=O)Nc1nc2ccc([S+]([O-])c3ccccc3)cc2[nH]1 (stereo not drawn) [Oxfendazole]
[1]; Homo sapiens, 72 h, read-out: The results of antibiotic drug inhibiting cancer cell lines (cell viability analysis), HeLa
  viability at 10 µM: 37%
[2]; Homo sapiens, HepG2, 72 h, read-out: The results of antibiotic drug inhibiting cancer cell lines (cell viability analysis), HepG2
  viability at 10 µM: 99.4%
[3]; Homo sapiens, NCI-H1650, 72 h, read-out: The results of antibiotic drug inhibiting cancer cell lines (cell viability analysis), H1650
  viability at 10 µM: 64%
T24; Homo sapiens, T-24, 72 h, read-out: The results of antibiotic drug inhibiting cancer cell lines (cell viability analysis), T24
  viability at 10 µM: 70.2%
[4]; Homo sapiens, 72 h, PC-3, repeated experiment, read-out: The results of antibiotic drug inhibiting cancer cell lines (cell viability analysis), PC-3
  viability at 10 µM: 72.7%
U-2OS; Homo sapiens, 72 h, read-out: The results of antibiotic drug inhibiting cancer cell lines (cell viability analysis), U2OS
  viability at 10 µM: 83.4%
[5]; Homo sapiens, A-375, 72 h, read-out: The results of antibiotic drug inhibiting cancer cell lines (cell viability analysis), A375
  viability at 10 µM: 59.7%
[6]; Homo sapiens, 72 h, read-out: The results of antibiotic drug inhibiting cancer cell lines (cell viability analysis), AGS
  viability at 10 µM: 51.4%
[7]; Homo sapiens, 72 h, read-out: The results of antibiotic drug inhibiting cancer cell lines (cell viability analysis), C-33A
  viability at 10 µM: 86.4%
[8]; Homo sapiens, 72 h, read-out: The results of antibiotic drug inhibiting cancer cell lines (cell viability analysis), SAS
  viability at 10 µM: 72.3%
[9]; Homo sapiens, 72 h, read-out: The results of antibiotic drug inhibiting cancer cell lines (cell viability analysis), TSGH-8301
  viability at 10 µM: 67.6%
[10]
  viability: 67.4%
TOV-21G; Homo sapiens, TOV21G, 72 h, read-out: The results of antibiotic drug inhibiting cancer cell lines (cell viability analysis), TOV-21G
  viability at 10 µM: 65.1%
[11]; Homo sapiens, 786-0, 72 h, read-out: The results of antibiotic drug inhibiting cancer cell lines (cell viability analysis), 786-O
  viability at 10 µM: 72.3%
NIH: OVCAR-3; Homo sapiens, 72 h, read-out: The results of antibiotic drug inhibiting cancer cell lines (cell viability analysis), NIH-OVCAR-3
  viability at 10 µM: 62.2%
[12]; Homo sapiens, MKN-45, 72 h, MKN-45, repeated experiment, read-out: The results of antibiotic drug inhibiting cancer cell lines (cell viability analysis), MKN-45
  viability at 10 µM: 79.9%
[13]; Homo sapiens, MCF7, 72 h, read-out: The results of antibiotic drug inhibiting cancer cell lines (cell viability analysis), MCF-7
  viability at 10 µM: 64.6%
BxPC-3; Homo sapiens, 72 h, read-out: The results of antibiotic drug inhibiting cancer cell lines (cell viability analysis), BxPC-3
  viability at 10 µM: 55%
[14]; Homo sapiens, 72 h, read-out: The results of antibiotic drug inhibiting cancer cell lines (cell viability analysis), LoVo
  viability at 10 µM: 73.7%
[15]; Homo sapiens, 72 h, read-out: The results of antibiotic drug inhibiting cancer cell lines (cell viability analysis), Hep3B
  viability at 10 µM: 107%
[16]; Homo sapiens, A549, 72 h, read-out: The results of antibiotic drug inhibiting cancer cell lines (cell viability analysis), A549
  viability at 10 µM: 64.7%
[17]; Homo sapiens, 72 h, read-out: The results of antibiotic drug inhibiting cancer cell lines (cell viability analysis), BCC
  viability at 10 µM: 55.3%
[18]; Homo sapiens, MDA-MB-231, 72 h, read-out: The results of antibiotic drug inhibiting cancer cell lines (cell viability analysis), MDA-MB231
  viability at 10 µM: 73.9%
AsPC-1; Homo sapiens, ASPC1, 72 h, read-out: The results of antibiotic drug inhibiting cancer cell lines (cell viability analysis), AsPC-1
  viability at 10 µM: 50.9%
